Reference: patent US12404283B2, “c-MYC mRNA translation modulators and uses thereof in the treatment of cancer” (Anima Biotech Inc., priority 2022, dated 2025)

test system: c-Myc; assay: c-Myc immunofluorescence assay; assay type: cell-based, human; conditions: A549 cells, 24 hours treatment, anti-c-Myc immunofluorescence
Summary of the method: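 A549 cells grown 48 h, exposed 24 h to rising compound concentrations, then fixed, permeabilised and stained for c-Myc plus DAPI. Nuclear-segmented c-Myc fluorescence quantified by high-content imaging at 20×; EC50 from logistic dose–response fits.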

Structure (SMILES)	Myc Efficacy (−LogEC50)
CCN(CC)CCCNC(=O)c1ccc2c(c1)sc1nc(-c3ccc(C(=O)NC4CCNC4)cc3)cn12 (stereo not drawn) [compound 296, N-(3-(diethylamino)propyl)-2-(4-(pyrrolidin-3-ylcarbamoyl)phenyl)benzo[d] imidazo[2,1-b]thiazole-7-carboxamide]	+ (+ >3 and <5)
CCN(CC)CCCNC(=O)c1ccc2c(c1)sc1nc(-c3ccc(C(=O)NCCN)cc3)cn12 [compound 297, 2-(4-((2-aminoethyl)carbamoyl)phenyl)-N-(3-(diethylamino)propyl)benzo [d]imidazo[2,1-b]thiazole-7-carboxamide]	+ (+ >3 and <5)
CCN(CC)CCCNC(=O)c1ccc2c(c1)sc1nc(-c3ccc(CN)cc3F)cn12 [compound 298, 2-(4-(aminomethyl)-2-fluorophenyl)-N-(3-(diethylamino)propyl)benzo [d]imidazo[2,1-b]thiazole-7-carboxamide]	+++ (+++ ≥6)
CCN(CC)CCCNC(=O)c1ccc2c(c1)sc1nc(-c3cccc(CN)c3)cn12 [compound 299, 2-(3-(aminomethyl)phenyl)-N-(3-(diethylamino)propyl) benzo[d]imidazo[2,1-b] thiazole-7-carboxamide]	++ (++ ≥5 and <6)
CCN(CC)CCCNC(=O)c1ccc2c(c1)sc1nc(-c3ccc(CNC4CC4)cc3)cn12 [compound 300, 2-(4-((cyclopropylamino)methyl)phenyl)-N-(3-(diethylamino)propyl)benzo [d]imidazo[2,1-b]thiazole-7-carboxamide]	+++ (+++ ≥6)
CNC(=O)c1ccc(-c2cn3c(n2)sc2cc(C(=O)N[C@@H]4CCCN(C)C4)ccc23)cc1 [compound 301, (R)-2-(4-(methylcarbamoyl)phenyl)-N-(1-methylpiperidin-3-yl)benzo[d]imidazo[2,1-b]thiazole-7-carboxamide]	+ (+ >3 and <5)
CNC(=O)c1ccc(-c2cn3c(n2)sc2cc(C(=O)NCC[C@@H]4CCCN4C)ccc23)cc1 [compound 303, (S)-2-(4-(methylcarbamoyl)phenyl)-N-(2-(1-methylpyrrolidin-2-yl)ethyl)benzo[d]imidazo [2,1-b]thiazole-7-carboxamide]	+ (+ >3 and <5)
O=C(NCCCN1CCCCC1)c1ccc2c(c1)sc1nc(-c3ccncc3)cn12 [compound 306, N-(3-(piperidin-1-yl)propyl)-2-(pyridin-4-yl)benzo[d]imidazo[2,1-b]thiazole-7-carboxamide]	++ (++ ≥5 and <6)
CCN(CC)CCCNC(=O)c1ccc2c(c1)sc1nc(-c3ccc(N4CCOCC4)cc3)cn12 [compound 307, N-(3-(diethylamino)propyl)-2-(4-morpholinophenyl)benzo[d] imidazo[2,1-b]thiazole-7-carboxamide]	++ (++ ≥5 and <6)
CCN(CC)CCCNC(=O)c1ccc2c(c1)sc1nc(-c3cccc(C4COC4)c3)cn12 [compound 308, N-(3-(diethylamino)propyl)-2-(3-(oxetan-3-yl)phenyl)benzo[d]imidazo [2,1-b]thiazole-7-carboxamide]	+ (+ >3 and <5)
CNC(=O)c1ccc(-c2cn3c(n2)sc2cc(C(=O)NCCCN4CCC(F)CC4)ccc23)cc1 [compound 309, N-(3-(4-fluoropiperidin-1-yl)propyl)-2-(4-(methylcarbamoyl)phenyl) benzo[d]imidazo[2,1-b]thiazole-7-carboxamide]	++ (++ ≥5 and <6)
CNC(=O)c1ccc(-c2cn3c(n2)sc2cc(C(=O)NCCCN4CCCC4)ccc23)cc1 [compound 310, 2-(4-(methylcarbamoyl)phenyl)-N-(3-(pyrrolidin-1-yl)propyl)benzo[d]imidazo [2,1-b]thiazole-7-carboxamide]	+ (+ >3 and <5)
CNC(=O)c1ccc(-c2cn3c(n2)sc2cc(NC(=O)CCCN4CCCCC4)ccc23)cc1 [compound 312, N-methyl-4-(7-(4-(piperidin-1-yl)butanamido)benzo[d]imidazo[2,1-b]thiazol-2-yl)benzamide]	++ (++ ≥5 and <6)
CCN(CC)CCCNC(=O)c1ccc2c(c1)sc1nc(-c3ccc(C4CCOCC4)cc3)cn12 [compound 314, N-(3-(diethylamino)propyl)-2-(4-(tetrahydro-2H-pyran-4-yl)phenyl)benzo[d]imidazo [2,1-b]thiazole-7-carboxamide]	+ (+ >3 and <5)
O=C(NCCCN1CCCCC1)c1ccc2c(c1)sc1nc(-c3ccc(C4COC4)cc3)cn12 [compound 315, 2-(4-(oxetan-3-yl)phenyl)-N-(3-(piperidin-1-yl)propyl)benzo[d]imidazo [2,1-b]thiazole-7-carboxamide]	++ (++ ≥5 and <6)
CNC(=O)c1ccc(-c2cn3c(n2)sc2cc(C(=O)NCCCN4CCCCC4)cnc23)cc1 [compound 317, 2-(4-(methylcarbamoyl)phenyl)-N-(3-(piperidin-1-yl)propyl)imidazo[2′,1′:2,3] thiazolo[4,5-b]pyridine-7-carboxamide]	+ (+ >3 and <5)
CCN(CC)CCCNC(=O)c1ccc2c(c1)sc1nc(-c3ccc(C4(N)CC4)cc3)cn12 [compound 318, 2-(4-(1-aminocyclopropyl)phenyl)-N-(3-(diethylamino)propyl)benzo [d]imidazo[2,1-b]thiazole-7-carboxamide]	++ (++ ≥5 and <6)
CNC(=O)c1ccc(-c2nc3sc4cc(C(=O)NCCCN5CCCCC5)ccc4n3n2)cc1 [compound 319, 2-(4-(methylcarbamoyl)phenyl)-N-(3-(piperidin-1-yl)propyl)benzo[4,5]thiazolo [3,2-b][1,2,4]triazole-6-carboxamide]	++ (++ ≥5 and <6)
CNC(=O)c1ccc(-c2cn3c(n2)sc2cc(C(=O)NCCCN4CCC(F)CC4)ccc23)c(F)c1 [compound 320, 2-(2-fluoro-4-(methylcarbamoyl)phenyl)-N-(3-(4-fluoropiperidin-1-yl)propyl)benzo[d]imidazo [2,1-b]thiazole-7-carboxamide]	+++ (+++ ≥6)
CNC(=O)c1ccc(-c2cn3c(n2)sc2cc(C(=O)NCCCN4CCCC4)ccc23)c(F)c1 [compound 321, 2-(2-fluoro-4-(methylcarbamoyl)phenyl)-N-(3-(pyrrolidin-1-yl)propyl)benzo[d]imidazo [2,1-b]thiazole-7-carboxamide]	++ (++ ≥5 and <6)
C#CCCC1(CCNC(=O)c2ccc(-c3cn4c(n3)sc3cc(C(=O)NCCCN(CC)CC)ccc34)cc2)N=N1 [compound 322, 2-(4-((2-(3-(but-3-yn-1-yl)-3H-diazirin-3-yl)ethyl)carbamoyl)phenyl)-N-(3-(diethylamino)propyl) benzo[d]imidazo[2,1-b] thiazole-7-carboxamide]	+ (+ >3 and <5)
C#CCCC1(CCN(CC)CCCNC(=O)c2ccc3c(c2)sc2nc(-c4ccc(C(=O)NC)cc4)cn23)N=N1 [compound 323, N-(3-((2-(3-(but-3-yn-1-yl)-3H-diazirin-3-yl)ethyl)(ethyl)amino)propyl)-2-(4-(methylcarbamoyl)phenyl) benzo[d]imidazo[2,1-b]thiazole-7-carboxamide]	+++ (+++ ≥6)
C#CCCC1(CCN2CC[C@H](CNC(=O)c3ccc4c(c3)sc3nc(-c5ccc(C)cc5)cn34)C2)N=N1 [compound 324, (R)-N-((1-(2-(3-(but-3-yn-1-yl)-3H-diazirin-3-yl)ethyl)pyrrolidin-3-yl)methyl)-2-(p-tolyl)benzo[d]imidazo[2,1-b]thiazole-7-carboxamide]	++ (++ ≥5 and <6)
C#CCCC1(CCN2CC[C@@H](CNC(=O)c3ccc4c(c3)sc3nc(-c5ccc(C)cc5)cn34)C2)N=N1 [compound 325, (S)-N-((1-(2-(3-(but-3-yn-1-yl)-3H-diazirin-3-yl)ethyl)pyrrolidin-3-yl)methyl)-2-(p-tolyl)benzo[d]imidazo[2,1-b]thiazole-7-carboxamide]	++ (++ ≥5 and <6)
C#CCCC1(CCOc2ccccc2-c2cn3c(n2)sc2cc(C(=O)NCCCN4CCCCC4)ccc23)N=N1 [compound 326, 2-(2-(2-(3-(but-3-yn-1-yl)-3H-diazirin-3-yl)ethoxy)phenyl)-N-(3-(piperidin-1-yl)propyl)benzo[d]imidazo [2,1-b]thiazole-7-carboxamide]	++ (++ ≥5 and <6)
C#CCCC1(CCOc2cccc(-c3cn4c(n3)sc3cc(C(=O)NCCCN(CC)CC)ccc34)c2)N=N1 [compound 327, 2-(3-(2-(3-(but-3-yn-1-yl)-3H-diazirin-3-yl)ethoxy)phenyl)-N-(3-(diethylamino)propyl)benzo [d]imidazo[2,1-b]thiazole-7-carboxamide]	+ (+ >3 and <5)
CCN(CC)CCCNC(=O)c1ccc2c(c1)sc1nc(-c3ccc(C(=O)NC)cc3)nn12 [compound 328, N-(3-(diethylamino)propyl)-2-(4-(methylcarbamoyl)phenyl) benzo[4,5]thiazolo[3,2-b][1,2,4]triazole-6-carboxamide]	++ (++ ≥5 and <6)
CNC(=O)c1ccc(-c2cn3c(n2)sc2cc(C(=O)N(C)CCCN4CCCCC4)ccc23)cc1 [compound 329, N-methyl-2-(4-(methylcarbamoyl)phenyl)-N-(3-(piperidin-1-yl)propyl)benzo[d]imidazo [2,1-b]thiazole-7-carboxamide]	+ (+ >3 and <5)
CCN(CC)CCCNC(=O)c1ccc2c(c1)sc1nc(-c3ccncn3)cn12 [compound 330, N-(3-(diethylamino)propyl)-2-(pyrimidin-4-yl)benzo[d]imidazo[2,1-b]thiazole-7-carboxamide]	+ (+ >3 and <5)
CCN(CC)CCCNC(=O)c1ccc2c(c1)sc1nc(-c3ccc(CNC4CC4)cc3F)cn12 [compound 331, 2-(4-((cyclopropylamino)methyl)-2-fluorophenyl)-N-(3-(diethylamino)propyl)benzo [d]imidazo[2,1-b]thiazole-7-carboxamide]	+++ (+++ ≥6)
